From US9481648B2, “Kinase inhibitors” (Respivert Limited, priority 2013, dated 2016)
pIC50: −log10 of the molar value. Like-named read-outs stand apart in the source and are kept apart here.

Experiments:
[1] = tested on: endotoxin (LPS)-induced uveitis in Lewis rats; assay: Endotoxin-induced uveitis in rats (in vivo vi); parameters: species or system rat
Method: Male, Lewis rats (6-8 weeks old, Charles River UK Limited) are housed in cages of 3 at 19-21° C. with a 12 h light/dark cycle (07:00/19:00) and fed a standard diet of rodent chow and water ad libitum. Non-fasted rats are weighed, individually identified on the tail with a permanent marker, and receive a single intravitreal administration into the right vitreous humor (5 μL dose volume) of 100 ng/animal of LPS (Escherichia coli 0111:B4 prepared in PBS, Sigma Aldrich, UK) using a 32-gauge needle. Untreated rats are injected with PBS. […] Following euthanasia, the right eye of each animal is enucleated and dissected into front (anterior) and back (posterior) sections around the lens. Each section is weighed and homogenised in 500 μL of sterile phosphate buffered saline followed by 20 minutes centrifugation at 12000 rpm at 4° C.

p38 MAPKα (MAPK14) = p38 MAPKα (MAPK14) (Homo sapiens (Human), UniProt Q16539); assay: p38 MAPKα enzyme inhibition (FRET, Z-LYTE; Method 2); assay type: biochemical
Sequence of p38 MAPKα (MAPK14) (Q16539 whole entry): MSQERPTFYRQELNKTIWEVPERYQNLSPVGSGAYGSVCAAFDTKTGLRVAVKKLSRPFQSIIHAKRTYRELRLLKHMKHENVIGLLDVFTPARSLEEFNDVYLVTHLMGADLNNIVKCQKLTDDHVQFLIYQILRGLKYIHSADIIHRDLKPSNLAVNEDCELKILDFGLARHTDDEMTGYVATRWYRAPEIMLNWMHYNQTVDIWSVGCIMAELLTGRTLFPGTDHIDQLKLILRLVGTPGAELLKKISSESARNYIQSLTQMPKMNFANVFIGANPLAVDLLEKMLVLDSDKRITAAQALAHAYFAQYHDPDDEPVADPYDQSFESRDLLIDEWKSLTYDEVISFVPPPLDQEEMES

c-Src = c-Src (Homo sapiens (Human), UniProt P12931); assay: c-Src enzyme inhibition (FRET, Z-LYTE); assay type: biochemical
Sequence of c-Src (P12931 whole entry, looked up): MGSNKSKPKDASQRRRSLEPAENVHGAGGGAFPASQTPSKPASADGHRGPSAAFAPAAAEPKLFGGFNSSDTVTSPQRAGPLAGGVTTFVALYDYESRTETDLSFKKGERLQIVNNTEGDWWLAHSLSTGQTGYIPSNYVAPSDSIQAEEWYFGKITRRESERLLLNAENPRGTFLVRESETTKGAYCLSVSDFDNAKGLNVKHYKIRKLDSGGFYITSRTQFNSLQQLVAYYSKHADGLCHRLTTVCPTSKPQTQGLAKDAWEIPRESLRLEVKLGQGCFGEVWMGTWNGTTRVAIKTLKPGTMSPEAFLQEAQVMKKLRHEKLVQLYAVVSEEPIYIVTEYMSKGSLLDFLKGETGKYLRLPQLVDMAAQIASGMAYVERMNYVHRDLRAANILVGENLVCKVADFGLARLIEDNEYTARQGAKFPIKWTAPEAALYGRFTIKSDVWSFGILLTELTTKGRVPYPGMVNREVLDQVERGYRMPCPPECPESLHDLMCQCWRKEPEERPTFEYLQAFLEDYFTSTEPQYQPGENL
Outline: (§1)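 Syk or c-Src enzyme (3000 or 2000 ng/mL solutions) was preincubated 2 h at RT with compound solutions at 1, 0.1, 0.01 or 0.001 µg/mL. Z-LYTE FRET peptide (8 µM solution) and ATP (800 µM solution for c-Src, 60 µM for Syk) were then added for 1 h, followed by protease development for 1 h. Phosphorylation was read as the coumarin/fluorescein emission ratio.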

Syk = Syk (Homo sapiens (Human), UniProt P43405); assay: Syk enzyme inhibition (FRET, Z-LYTE); assay type: biochemical
Outline: as §1

GSK 3α = GSK 3α (Homo sapiens (Human), UniProt P49840); assay: GSK 3α enzyme inhibition (FRET, Z-LYTE; Method 2); assay type: biochemical; conditions: read-out: IC50 Values for Enzyme Inhibition GSK3α
Sequence of GSK 3α (P49840 whole entry): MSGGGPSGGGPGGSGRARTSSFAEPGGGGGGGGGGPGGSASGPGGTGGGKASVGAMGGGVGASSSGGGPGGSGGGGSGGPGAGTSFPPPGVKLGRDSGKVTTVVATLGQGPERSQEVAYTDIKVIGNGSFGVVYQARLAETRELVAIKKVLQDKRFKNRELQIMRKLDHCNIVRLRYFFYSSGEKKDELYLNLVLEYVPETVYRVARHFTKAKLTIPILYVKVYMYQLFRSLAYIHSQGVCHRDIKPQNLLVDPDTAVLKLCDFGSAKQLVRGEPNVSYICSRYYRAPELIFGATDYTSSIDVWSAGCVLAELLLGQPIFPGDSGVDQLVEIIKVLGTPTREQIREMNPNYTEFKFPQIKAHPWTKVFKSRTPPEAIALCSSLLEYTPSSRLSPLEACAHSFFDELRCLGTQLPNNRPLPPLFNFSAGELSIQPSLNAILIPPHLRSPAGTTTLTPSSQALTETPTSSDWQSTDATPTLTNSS
Outline: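 Phosphorylation was taken from the donor (coumarin) to acceptor (fluorescein) emission ratio after 1 h protease development, which cleaves only unphosphorylated peptide. Before that, peptide (8 μM stock) plus ATP (40 μM stock) reacted 1 h. This followed a 105 min RT preincubation of GSK3-α with compound stocks of 10–0.01 μg/mL.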

[2] = tested on: β-catenin in d-U937 cells; assay: Accumulation of β catenin in d-U937 cells (assay m); assay type: cell-based, human
Outline: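 U937 cells were differentiated with PMA (100 ng/mL) for 48–72 hr, then treated with compound or vehicle for 18 hr. After formaldehyde fixation, β-catenin was detected with a primary antibody and an HRP secondary using TMB (OD450–655). Signal was normalised to crystal violet cell staining (OD595).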

non-mutant kinases = assay type: binding; conditions: for number of individual kinase hits, S(1): non-mutant kinases with % Ctrl <1
Method: These assays may be conducted by DiscoverX (formerly Ambit; San Diego, Calif.). The percentage inhibition produced by incubation with a test compound may be calculated relative to the non-inhibited control.

[3] = Table 7a, eyes of LPS-stimulated rats, 1 mg/mL
[4] = Table 7c, eyes of LPS-stimulated rats, 1 mg/mL

SMILES | pIC50 (p38 MAPKα (MAPK14)) | pIC50 (c-Src) | pIC50 (Syk) | pIC50 (GSK 3α) | % β-catenin induction ([2]; test compound 1 μg/mL) | % β-catenin induction ([2]; test compound 5 μg/mL) | % β-catenin induction ([2]; test compound 10 μg/mL) | other results
C[C@@H]1C[C@H]2[C@@H]3CCC4=CC(=O)C=C[C@]4(C)[C@@]3(F)[C@@H](O)C[C@]2(C)[C@@]1(O)C(=O)CO [Dexamethasone] |  |  |  |  |  |  |  | IL-1β Anterior [1, 3]: 553.5 ± 155.7 pg/mL; IL-1β Posterior [1, 3]: 365.6 ± 178.2 pg/mL; IL-6 Anterior [1, 3]: 1000.7 ± 126.2 pg/mL; IL-6 Posterior [1, 3]: 1723.4 ± 224.1 pg/mL; MCP-1 Anterior [1, 3]: 156.3 ± 50.8 pg/mL; MCP-1 Posterior [1, 3]: 95.2 ± 32.5 pg/mL
C#Cc1cc(Nc2nccc(Oc3ccc(NC(=O)Nc4cc(C(C)(C)C)cc(NS(C)(=O)=O)c4OC)c4ccccc34)n2)cc(C(=O)N[C@@H](C)CN2CCOCC2)c1 [Example 57, (S)-3-((4-((4-(3-(5-(tert-butyl)-2-methoxy-3-(methylsulfonamido)phenyl)ureido)-naphthalen-1-yl)oxy)pyrimidin-2-yl)amino)-5-ethynyl-N-(1-morpholinopropan-2-yl)benzamide] | 6.54 | 7.32 | 6.15 | 5.95 | 4% | 6% | 11% | 
COCCOCCOCCOc1cc(Nc2nccc(Oc3ccc(NC(=O)Nc4cc(C(C)(C)C)cc(NS(C)(=O)=O)c4OC)c4ccccc34)n2)cc(OC)c1Cl [Example 58, N-(5-(tert-Butyl)-3-(3-(4-((2-((4-chloro-3-methoxy-5-(2-(2-(2-methoxyethoxy)ethoxy)ethoxy)-phenyl)amino)pyrimidin-4-yl)oxy)naphthalen-1-yl)ureido)-2-methoxyphenyl)-methanesulfonamide] | 6.74 | 7.32 | 6.34 | 5.36 | 5% | 2% | 10% | 
COCCOCCOCCOc1cc(Nc2nccc(Oc3ccc(NC(=O)Nc4cc(C(C)(C)C)cc(-c5nnco5)c4OC)c4ccccc34)n2)cc(OC)c1 [Example 59, 1-(5-(tert-Butyl)-2-methoxy-3-(1,3,4-oxadiazol-2-yl)phenyl)-3-(4-((2-((3-methoxy-5-(2-(2-(2-methoxyethoxy)ethoxy)ethoxy)phenyl)amino)pyrimidin-4-yl)oxy)naphthalen-1-yl)urea] | 6.88 | 7.55 | 6.89 | 6.01 | 14% | 33% | 28% | 
C#Cc1cc(Nc2cc(Oc3ccc(NC(=O)Nc4cc(NS(C)(=O)=O)cc(C(C)(C)C)c4)c4ccccc34)ccn2)cc(C(=O)NCCN2CCOCC2)c1 [Example 65, 3-((4-((4-(3-(3-(tert-Butyl)-5-(methylsulfonamido)phenyl)ureido)naphthalen-1-yl)oxy)-pyridin-2-yl)amino)-5-ethynyl-N-(2-morpholinoethyl)benzamide] | 6.49 | 7.07 | 5.89 | 5.13 | 5% | 2% | 6% | 
COc1cc(Nc2cc(Oc3ccc(NC(=O)Nc4cc(C(C)(C)C)cc(NS(C)(=O)=O)c4OC)c4ccccc34)ccn2)cc(C(=O)NCCCN2CCOCC2)c1 [Example 66, 3-((4-((4-(3-(5-(tert-Butyl)-2-methoxy-3-(methysulfonamido)phenyl)ureido)naphthalen-1-yl)oxy)pyridin-2-yl)amino)-5-methoxy-N-(3-morpholinopropyl)benzamide] | 6.85 | 7.64 | 6.48 | 5.61 | 0% | 6% | 3% | Cell counts [1, 4]: 28.0 ± 7.6; IL-1β Anterior tissue [1, 4]: 342.7 ± 145.3 pg/mL; IL-1β Posterior tissue [1, 4]: 209.9 ± 59.0 pg/mL; cytokine levels in both the anterior and posterior segments of the eyes ([1]; rats treated with intravitreal endotoxin LPS, topical dosing): significantly reduced
C#Cc1cc(Nc2cc(Oc3ccc(NC(=O)Nc4cc(C(C)(C)C)cc(NS(C)(=O)=O)c4OC)c4ccccc34)ccn2)cc(C(=O)N[C@@H](C)COCCOCCOC)c1 [Example 67] | 6.61 | 7.25 | 5.93 | 4.93 | 3% | 2% | −2% | 
C#Cc1cc(Nc2cc(Oc3ccc(NC(=O)Nc4cc(C(C)(C)C)cc(NS(C)(=O)=O)c4OC)c4ccccc34)ccn2)cc(C(=O)N[C@H](C)COCCOCCOC)c1 [Example 68, (R)-3-((4-((4-(3-(5-(tert-Butyl)-2-methoxy-3-(methylsulfonamido)phenyl)ureido)-naphthalen-1-yl)oxy)pyridin-2-yl)amino)-5-ethynyl-N-(1-(2-(2-methoxyethoxy)ethoxy)-propan-2-yl)benzamide] | 6.68 | 7.15 | 5.93 | 4.93 | 2% | 2% | −1% | 
CCOc1c(NC(=O)Nc2ccc(Oc3ccnc(Nc4cc(OC)cc(OCCOCCOCCOC)c4)n3)c3ccccc23)cc(C(C)(C)C)cc1NS(C)(=O)=O [Example 69] | 6.83 | 7.89 | 6.92 | 5.82 | 10% | 17% | 25% | 
COCCOCCOCCOc1cc(Nc2cc(Oc3ccc(NC(=O)Nc4cc(C(C)(C)C)cc(C(=O)NCCN(C)C)c4OC)c4ccccc34)ccn2)cc(OC)c1 [Example 76, 5-(tert-Butyl)-N-(2-(dimethylamino)ethyl)-2-methoxy-3-(3-(4-((2-((3-methoxy-5-(2-(2-(2-methoxyethoxy)ethoxy)ethoxy)phenyl)amino)pyridin-4-yl)oxy)naphthalen-1-yl)ureido)-benzamide] | 6.80 | 7.51 | 7.46 | 5.32 | 2% | −1% | −13% | 
COCCOCCOCCOc1cc(Nc2cc(Oc3ccc(NC(=O)Nc4cc(C(C)(C)C)cc(C(=O)NC5COC5)c4OC)c4ccccc34)ccn2)cc(OC)c1 [Example 77, 5-(tert-Butyl)-2-methoxy-3-(3-(4-((2-((3-methoxy-5-(2-(2-(2-methoxyethoxy)ethoxy)ethoxy)-phenyl)amino)pyridin-4-yl)oxy)naphthalen-1-yl)ureido)-N-(oxetan-3-yl)benzamide] | 6.67 | 7.64 | 7.41 | 5.45 | −4% | −1% | −1% | 
COc1cccc(Nc2cc(Oc3ccc(NC(=O)Nc4cc(C(C)(C)C)cc(C(=O)NC5COC5)c4OC)c4ccccc34)ccn2)c1 [Example 81, 5-(tert-Butyl)-2-methoxy-3-(3-(4-((2-((3-methoxyphenyl)amino)pyridin-4-yl)oxy)naphthalen-1-yl)ureido)-N-(oxetan-3-yl)benzamide] | 6.76 | 7.24 | 6.92 | 5.31 | 4% | 14% | 13% | 
COCC(=O)Nc1cc(Oc2ccc(NC(=O)Nc3cc(C(C)(C)C)nn3-c3ccc(C)cc3)c3ccccc23)ccn1 [Reference Compound, N-(4-(4-(3-(3-tert-butyl-1-p-tolyl-1H-pyrazol-5-yl)ureido)naphthalen-1-yloxy)pyridin-2-yl)-2-methoxyacetamide, reference compound] |  |  |  |  |  |  |  | number of individual kinase hits, S(1) (non-mutant kinases; 50 nM): 7; number of individual kinase hits, S(10) (non-mutant kinases; 50 nM, non-mutant kinases with % Ctrl <10): 32; number of individual kinase hits, S(35) (non-mutant kinases; 50 nM, non-mutant kinases with % Ctrl <35): 67; number of individual kinase hits, S(1) (non-mutant kinases; 500 nM): 45
